Converted amounts (≈) assume the structure as drawn. Like-named read-outs stand apart in the source and are kept apart here.

Data set [1] deals with platinum-sensitive recurrent epithelial ovarian, fallopian tube, or primary peritoneal cancer. The conditions noted are these: for PFS Median: niraparib 300 mg QD; for HR, CFI / HR, TFST: niraparib versus placebo. The source says: All patients had received at least two prior platinum-containing regimens and were in response (complete or partial) to their most recent platinum-based regimen. Eligible patients were assigned to one of two cohorts based on the results of a germline BRCA mutation test. […] Randomization occurred within 8 weeks of the last dose of the most recent platinum-containing regimen. […] Clinic visits occurred each cycle (4 weeks ±3 days). […] Prior to unblinding of the study, tumors of patients randomized to the non-gBRCAmut cohort were tested for the presence of homologous recombination deficiency (HRD) using the Myriad myChoice® HRD test, which evaluates three independent biomarkers of tumor genome instability: loss of heterozygosity, telomeric allelic imbalance, and large-scale state transitions. Tumors with homologous recombination deficiencies and those with somatic BRCA mutations were defined as HRD positive (HRDpos). The primary efficacy analysis for PFS was prospectively defined and assessed for the gBRCAmut cohort. The primary efficacy analysis for PFS was prospectively defined and assessed for the non-gBRCAmut cohort with a hierarchical testing schema. In the first step, PFS was assessed in the group of patients with HRDpos tumors and if significant, PFS was assessed in the overall non-gBRCAmut cohort. Secondary efficacy endpoints included chemotherapy-free interval (CFI), time to first subsequent therapy (TFST), PFS after the first subsequent therapy (PFS2), time to second subsequent therapy (TSST) and OS (overall survival).

Data set [2] deals with tumor models.
Data set [3] relates to juvenile rats. The conditions noted are these: rat, in vivo, 1 month.
The subject of data set [4] is beagle dogs. The conditions noted are these: dog, in vivo, 1 month.
Data set [5] deals with recurrent solid tumors that exhibit a BRCAness mutational signature. The settings on record: oral niraparib in combination with TSR-042, patients between 6 months and 18 years.
Data set [6] in a line: in vivo. The settings on record: tumor, 50 mg/kg.
Data set [7] is described as follows: physchem.
For data set [8] the following is noted: drug substance. As for the experimental part: The particle size analyzer can determine particle size using low-angle laser light scattering and calculates results in % volume based on equivalent spheres. Volume distributions for the D10, D50, D90, D4,3, and D3,2 can be determined. The suspension is added to the tank until the obscuration is in range, targeting a 10% obscuration. Measurements are taken once the obscuration remains consistent.
These batches were divided into sub-lots at various time intervals and each sub-lot was analyzed for content uniformity. The batches used are described in Table 12.

Turning to `NC(=O)c1cccc2cn(-c3ccc([C@@H]4CCCNC4)cc3)nc12` [Niraparib, niraparib], the “PFS Median” value in data set [1] (HRDpos group of the non-gBRCAmut cohort, N = 106) was determined as 12.9 months; in data set [1] (gBRCAmut cohort, N = 138), 21.0 months; in data set [1] (overall non-gBRCAmut cohort, N = 234) it was 9.3 months. Further, the “Median CFI (chemotherapy-free interval)” value in data set [1] (gBRCAmut cohort) is 22.8 months; in data set [1] (non-gBRCAmut cohort), 12.7 months. In addition, the “Median TFST (time to first subsequent therapy)” value in data set [1] (gBRCAmut cohort) was 21.0 months; in data set [1] (non-gBRCAmut cohort), 11.8 months. Besides, the “HR, CFI” value in data set [1] (gBRCAmut cohort) is recorded as 0.26; in data set [1] (non-gBRCAmut cohort), 0.50. Besides, the “HR, TFST” value in data set [1] (gBRCAmut cohort) was 0.31; in data set [1] (non-gBRCAmut cohort) it was 0.55. The tumor regression result in data set [2] (50 mg/kg, daily dosing) was “tumor regression”; in data set [2] (dose of 75 mg/kg, same model), “did not result in tumor regression”. The values for the no-observed-adverse-effect-level in data set [3] and in data set [4] were 10 mg/kg/day and 6 mg/kg/day, respectively. Besides, the “treatment of pediatric cancer patients, result of the study” value in data set [5] is recorded as “can be used successfully”. The compound also gave a concentration at 6 h in data set [6] of 4570 ng/mL. This compound returned a pKa in data set [7] of 9.95. In data set [7] (aqueous media across the physiological pH range, aqueous buffer), this compound showed a solubility of 700 to 1100 µg/mL (≈ 2180 to 3430 µM).

For `Cc1ccc(S(=O)(=O)O)cc1.NC(=O)c1cccc2cn(-c3ccc([C@@H]4CCCNC4)cc3)nc12` [niraparib tosylate monohydrate, 2-{4-[(3S)-piperidin-3-yl]phenyl}-2H-indazole 7-carboxamide 4-methylbenzenesulfonate hydrate (1:1:1)], in data set [8], the bulk density was 0.34-0.45 g/cc and the tapped density was 0.53-0.66 g/cc.

The values above are taken from patent publication US20210030735A1 (Tesaro, Inc., priority 2018, published 2021).
